In paper PMC10111022, “Comparison of pharmacological inhibitors of lysine-specific demethylase 1 in glioblastoma stem cells reveals inhibitor-specific efficacy profiles” (Frontiers in Neurology, 2023):

Key:
NK or T-cells = assay: Flow cytometry of peripheral blood NK and T-cell subsets at day 50; type: in vivo, athymic nude mice; settings: peripheral blood mononuclear cells
Experimental: Once confirmation of intracranial tumor engraftment at 7 days post-engraftment, the mice were equally randomized into groups to receive either GSK-LSD1 or the vehicle control. The mice received GSK-LSD1 1 mg/kg diluted in DMSO and PBS (5 and 95%, respectively) via intraperitoneal injection (200 μL/mouse) while the control mice received the untreated vehicle in parallel. In accordance with the approved IACUC protocol (No: 638-RN03) at MD Anderson Cancer Center, treatment continued until the mice succumbed to tumor burden and were found in a moribund condition as determined by neurological impairment (hydrocephalus, seizures, inactivity, and/or ataxia) or morbidity (hunched posture or weight loss). At this time mice were euthanized by both carbon dioxide exposure and cervical dislocation. Flow cytometric characterization of immune cell subsets was carried out in blood samples obtained from mice (four control mice and six GSK-LSD1 mice) in each group at day 50 via cardiac puncture and the sample was processed using Ficoll (GE Healthcare; Chicago, IL) centrifugation to collect the peripheral blood mononuclear cells (PBMCs). Next, PBMCs were stained with the Ghost Dye Violet (Tonbo; San Diego, CA) and then incubated with antibodies at 4°C for 25 min before analysis. […]

MDA-GSC 23 = assay: Cell viability dose response (IC50), MDA-GSC 23; type: cell-based; settings: Homo sapiens, mean of three independent experiments
Experimental: (§1) MDA-GSCs were plated at 50,000 cells/well into 12-well plates at and allowed to grow for 5 days until neurospheres were formed. The cells were then treated with either TCP, GSK-LSD1, or RN-1 at various concentrations for 5 days. Next, the cells were collected and neurospheres were dissociated with Accutase (BioLegend; San Diego, CA). Cell viability was determined using a trypan dye exclusion assay and read with the Vi-Cell XR Cell Viability Analyzer (Beckman Coulter; Brea, CA). NHAs were plated at 50,000 cells/well into 12-well plates and allowed to adhere overnight. The following day, NHAs were treated with the LSD1 inhibitors. After 5 days, the cells were detached using TrypLE and assessed with the trypan blue dye exclusion assay.
(§2) The alamarBlue cell viability (Bio-Rad; Hercules, CA) was performed on the MDA-GSCs according to the manufacturer’s protocol. The cells were plated at 5,000 cell/well into a 96-well plate and allowed to grow for 5 days. After 5 days, the alamarBlue reagent was added and fluorescence was measured with the Synergy 2 (BioTek Instruments; Winooski, VT) plate reader according to the manufacturer’s protocol.

MDA-GSC 7–2 = assay: Cell viability dose response (IC50), MDA-GSC 7–2; type: cell-based; settings: Homo sapiens, mean of three independent experiments
Experimental: as §1, §2

[1] = system: MDA-GSC20 orthotopic xenograft; assay: Intracranial orthotopic xenograft model, bioluminescence tumor burden and survival; type: in vivo, athymic nude mice
Experimental: All animal experiments were approved by the University of Texas MD Anderson Cancer Center Institutional Animal Care and Use Committee (IACUC) under protocol 638 (P.I. Chandra). An equal number of male and female athymic nude mice aged 4–6 weeks old were bolted with guide screws by MD Anderson’s Brain Tumor Center Animal Core as previously described ([16]). Ketamine/xylazine was administered for anesthesia and buprenorphine or buprenorphine sustained-release (SR) was administered for analgesia during and after the surgery. MDA-GSC20 luciferase labelled cells were resuspended in PBS and 500,000 cells were intracranially implanted into each mouse via guide screw. To monitor tumor engraftment and tumor progression throughout treatment, each mouse was imaged weekly using an IVIS 200 imager (Perkin Elmer; Waltham, MA). Mice were anesthetized via inhalation of isoflurane and injected with 200 μL of D-Luciferin (GoldBio; St Louis, MO) subcutaneously. Bioluminescence signal in the mice was read and reported as photons/s.
Once confirmation of intracranial tumor engraftment at 7 days post-engraftment, the mice were equally randomized into groups to receive either GSK-LSD1 or the vehicle control. The mice received GSK-LSD1 1 mg/kg diluted in DMSO and PBS (5 and 95%, respectively) via intraperitoneal injection (200 μL/mouse) while the control mice received the untreated vehicle in parallel. In accordance with the approved IACUC protocol (No: 638-RN03) at MD Anderson Cancer Center, treatment continued until the mice succumbed to tumor burden and were found in a moribund condition as determined by neurological impairment (hydrocephalus, seizures, inactivity, and/or ataxia) or morbidity (hunched posture or weight loss). At this time mice were euthanized by both carbon dioxide exposure and cervical dislocation. […]

MDA-GSC 311 = assay: Cell viability dose response (IC50), MDA-GSC 311; type: cell-based; settings: Homo sapiens, mean of three independent experiments
Experimental: as §1, §2

MDA-GSC7-2 = assay: qPCR of resistance-related genes, MDA-GSC7-2; type: cell-based, Human; settings: MDA-GSC7-2 (sensitive)
Experimental: (§3) Total RNA was extracted using RNeasy Plus Mini Kit (Qiagen; Hilden, Germany) following the manufacturer’s protocol. cDNA was synthesized with the iScript cDNA synthesis kit (Bio-Rad; Hercules, CA), qPCR was performed using Forget-Me-Not EvaGreen qPCR kit (Biotium; Fremont, CA), and samples were analyzed with the LightCycler96 (Roche; Basel, Switzerland). Cq values were normalized to PPIA and reported as relative fold change from untreated control.

MDA-GSC 8–11 = assay: Cell viability dose response (IC50), MDA-GSC 8–11; type: cell-based; settings: Homo sapiens, mean of three independent experiments
Experimental: as §1, §2

MDA-GSC17 = assay: qPCR of resistance-related genes, MDA-GSC17; type: cell-based, Human; settings: MDA-GSC17 (sensitive)
Experimental: as §3

MDA-GSC lines [2] = assay: Cell proliferation of MDA-GSCs tracked over 5 days; type: cell-based, Human; settings: 400 μM, after 5 days; all MDA-GSC lines apart from MDA-GSC311
Experimental: as §2
Figure 3 Effects of GSK-LSD1 on GSCs cell proliferation and neurosphere formation. (A–I) Cell proliferation of MDA-GSCs was tracked over 5 days after treatment with GSK-LSD1 at 400 μM. Day five data was analyzed with a student’s t-test. ns = p > 0.05, *p ≤ 0.05, **p ≤ 0.01, ***p ≤ 0.001, ****p ≤ 0.0001. (J) Bar graphs showing the number of neurospheres formed by MDA-GSCs after treatment with GSK-LSD1. Grouped data was analyzed using a two-way ANOVA with the Šídák multiple comparisons test. ns = p > 0.05, ***p ≤ 0.001, ****p ≤ 0.0001.

MDA-GSC 20 = assay: Cell viability dose response (IC50), MDA-GSC 20; type: cell-based; settings: Homo sapiens, mean of three independent experiments
Experimental: as §1, §2

MDA-GSC 7–11 = assay: Cell viability dose response (IC50), MDA-GSC 7–11; type: cell-based; settings: Homo sapiens, mean of three independent experiments
Experimental: as §1, §2

human T cells = system: human T cells; design: method as in PMID 32166329; settings: direct effect on human T cells; cited from earlier work
MDA-GSC lines [3] = assay: Cell viability across the panel of nine MDA-GSC lines; type: cell-based, Human; settings: many/several MDA-GSC lines, dose response curves Figure 2
Experimental: as §1, §2

NHA = assay: Cell viability dose response (IC50), normal human astrocytes; type: cell-based
Experimental: as §1, §2

MDA-GSC 17 = assay: Cell viability dose response (IC50), MDA-GSC 17; type: cell-based; settings: Homo sapiens, mean of three independent experiments
Experimental: as §1, §2

## c1ccc([C@@H]2C[C@H]2NC2CCNCC2)cc1 [GSK-LSD1]
NK or T-cells
  cytotoxic effects on NK or T-cells: does not have cytotoxic effects
MDA-GSC 23
  IC50: > 750 µM
MDA-GSC 7–2
  IC50: 518 µM
[1]; 1 mg/kg intraperitoneal, week 11, vs control mice
  rate of tumor progression: lower rate of tumor progression
[1]; 1 mg/kg intraperitoneal, week seven, vs control
  tumor burden (bioluminescence): strong regression in tumor burden
[1]; continued dosing beyond week 11
  overall survival: ineffective to improve overall survival
MDA-GSC 311
  IC50: > 750 µM
MDA-GSC7-2
  expression of resistance-related genes (FTH1, RAB39B, HKDC1, FAM213A): inappreciable effects
MDA-GSC 8–11
  IC50: 726 µM
MDA-GSC17
  expression of resistance-related genes: not
MDA-GSC lines [2]
  effect on MDA-GSC proliferation: Consistent anti-proliferative effects
MDA-GSC 20
  IC50: > 750 µM
MDA-GSC 7–11
  IC50: 606 µM
Human T cells
  human T cell growth: minimally impacted
MDA-GSC lines [3]
  concentrations at which MDA-GSC viability was reduced: 250 to 750 µM
NHA; Homo sapiens, Astrocyte, NHA, mean of three independent experiments
  IC50: > 750 µM
NHA; NHA treated at the maximum concentration tested for each compound
  effect on NHA viability: minimal effect
MDA-GSC 17
  IC50: 253 µM
